We go through nine compounds from patent publication US11471434B2, “Treatment for migraine” (INTRABIO LTD., priority 2017, dated 2022).

In one data set the test system is vertigo. Particulars: cited from earlier work.
The subject of data set [1] is Niemann-Pick Type C (NPC). The settings on record: 12 patients with NPC (Bremova 2015); cited from earlier work.
Data set [2] concerns NPC Chinese Hamster Ovary (CHO) cells. The experiment in a line: Relative lysosomal volume via LysoTracker in NPC CHO cells. The format is cell-based. The settings on record: 1 mM, 72 hours, p <0.01 versus untreated NPC1-null, FIG. 1. The method, then:
NPC Chinese Hamster Ovary (CHO) cells were treated in vitro for 72 hours with 1 mM of acetyl-DL-leucine, acetyl-L-leucine, acetyl-D-leucine, DL-leucine, L-leucine, and D-leucine, respectively. Relative lysosomal volume was quantified via LysoTracker.
Data presented in FIG. 1 show the results for each treatment, with lysosomal volume expressed as fold change relative to untreated wild-type […]. The asterisks (**) indicate a p-values of <0.01 versus untreated NPC1-null.

Data set [3] deals with ataxia of different etiologies. The settings on record: patients with ataxia, responders (Becker-Bense 2015); cited from earlier work.
The subject of another data set is cerebellar symptoms. Particulars: cited from earlier work.
Another data set concerns cerebellar ataxia. Particulars: patients with cerebellar ataxia (Schniepp 2015); cited from earlier work.
The subject of data set [4] is Migraine and Vestibular Migraine. Nature of the data set: Case study Example 4: Tanganil for migraine and vestibular migraine. The settings on record: before treatment with Tanganil. The format is in vivo, human. From the text: Patient Details: • Sex: […] • Six tablets of Tanganil® per day: two in the morning, two at noon and two in the evening for one week; thereafter, ten tablets of Tanganil® per day: four in the morning, three at noon and three in the evening. Tanganil® tablets as described in Example 1.

The test system of data set [5] is acute unilateral labyrinthectomy. Particulars: rat, by activation of the vestibulo-cerebellum and deactivation of the posterolateral thalamus (Gunther 2015); cited from earlier work.
A further data set deals with Migraine with Aura. Nature of the data set: Case study Example 3: Tanganil for migraine with aura. The format is in vivo, human. The settings on record: 600 mg taken once a week; before treatment with Tanganil.

Consider `CC(=O)NC(CC(C)C)C(=O)O` (racemic) [acetyl-DL-leucine], for which the “cases with improvement in vertigo symptomology” value in the data set on vertigo (clinical results reported by various authors, including disappearance of vertigo attacks) is listed as “more than 95 % of cases”. For the same compound, the safety profile entry in the data set on vertigo (used in France to treat acute vertigo since 1957) is recorded as “excellent safety profile”. Besides, the ataxia entry in [1] is “significant improvement in ataxia”. Further, the “lysosomal volume (LysoTracker), fold change relative to untreated wild-type” value in data set [2] is given as “significantly reduced”. In addition, the “brain metabolism (PET)” value in data set [3] was “increased metabolism in the midbrain and lower brainstem”. The “benefit in cerebellar patients” value in the data set on cerebellar symptoms (another case series (Pelz 2015)) is “did not find benefit”. Further, in the data set on cerebellar symptoms (case series (Strupp 2013)), the cerebellar symptoms result is on record as “improvement of cerebellar symptoms”. Moreover, the gait variability entry in the data set with cerebellar ataxia is reported as “improves gait variability”.

Take `CC(C)C[C@H](N)C(=O)O` [L-leucine]: the “lysosomal volume (LysoTracker), fold change relative to untreated wild-type” value in data set [2] is given as “significantly reduced”.

On to `Cc1c(N(C)CS(=O)(=O)[O-])c(=O)n(-c2ccccc2)n1C.[Na+]` [Novalgin], for which the “improvement of attacks of migraine headache with pain medication” value (“improvement … with pain medication” for short) in data set [4] was “improvement”.

In the case of `CC(=O)N[C@@H](CC(C)C)C(=O)O` [acetyl-L-leucine], the “effect on postural compensation” value in data set [5] is “significant effect”. Besides, the “lysosomal volume (LysoTracker), fold change relative to untreated wild-type” value in data set [2] was “significantly reduced”.

In the case of `CC(C)CC(N)C(=O)O` (racemic) [DL-leucine], the “lysosomal volume (LysoTracker), fold change relative to untreated wild-type” value in data set [2] is on record as “significantly reduced”.

Consider `CC(C)Cc1ccc(C(C)C(=O)O)cc1` (stereo not drawn) [Ibuprofen], for which the “improvement … with pain medication” value in [4] is on record as “no improvement”. Moreover, in the data set on Migraine with Aura, the “response of headache attacks” value is “responding”.

As to `CC(=O)Oc1ccccc1C(=O)O` [Aspirin], the “improvement … with pain medication” value in data set [4] is recorded as “no improvement”.

As to `CC(=O)N[C@H](CC(C)C)C(=O)O` [acetyl-D-leucine], the “lysosomal volume (LysoTracker), fold change relative to untreated wild-type” value in data set [2] is “significantly reduced”.

As for `CC(C)C[C@@H](N)C(=O)O` [D-leucine], the “lysosomal volume (LysoTracker), fold change relative to untreated wild-type” value in data set [2] is reported as “significantly reduced”.
